Laboratory results: publication PMC7614367, “Itraconazole inhibits endothelial cell migration by disrupting inositol pyrophosphate-dependent focal adhesion dynamics and cytoskeletal remodeling” (Biomedicine & Pharmacotherapy, 2023)

Key:
FAK (GST-FAK, flag-FAK) [1] = molecular target: T1, FAK (GST-FAK, flag-FAK) (Homo sapiens, UniProt Q05397); assay: bead pull-down of GST-FAK by flag-FAK, western blot; assay type: binding; details: CF2 (10 μM) competing with 5-InsP7 (5 μM)
T1 construct: gene PTK2; full-length FAK, GST- or flag-tagged, produced in HEK293 cells; tags kept; endogenous HUVEC protein also pulled down

endogenous FAK (MEF) = molecular target: T2, endogenous FAK (MEF) (Mus musculus, UniProt P34152); assay: affinity resin pull-down from cell lysate, western blot; assay type: biochemical; details: immobilised 5-PCP-InsP5 resin
T2 construct: gene Ptk2; endogenous full-length FAK in lysates of WT and IP6K1 KO mouse embryonic fibroblasts

FAK (GST-FAK, flag-FAK) [2] = molecular target: T1, FAK (GST-FAK, flag-FAK); assay: affinity resin pull-down of purified protein, western blot; assay type: binding; details: immobilised 5-PCP-InsP5 resin; 4 °C overnight; also endogenous protein from HUVEC lysate; free 5-PCP (10 μM) with 5-InsP7 (5 μM) in a FAK dimerization competition assay
p34 (flag-p34) = molecular target: T3, p34 (flag-p34) (Homo sapiens, UniProt O15144); assay: as above; assay type: binding; details: immobilised 5-PCP-InsP5 resin; 4 °C overnight; also endogenous protein from HUVEC lysate
T3 construct: gene ARPC2; tag kept; endogenous HUVEC protein also pulled down

coronin (GST-coronin) = molecular target: T4, coronin (GST-coronin) (Homo sapiens, UniProt Q9BR76); assay: as above; assay type: binding; details: immobilised 5-PCP-InsP5 resin; 4 °C overnight; also endogenous protein from HUVEC lysate
T4 construct: gene CORO1B; GST-fused coronin produced in HEK293 cells, eluted with glutathione; tag kept; endogenous HUVEC protein also pulled down
T4 sequence (Q9BR76 whole entry, the tested form may be a part): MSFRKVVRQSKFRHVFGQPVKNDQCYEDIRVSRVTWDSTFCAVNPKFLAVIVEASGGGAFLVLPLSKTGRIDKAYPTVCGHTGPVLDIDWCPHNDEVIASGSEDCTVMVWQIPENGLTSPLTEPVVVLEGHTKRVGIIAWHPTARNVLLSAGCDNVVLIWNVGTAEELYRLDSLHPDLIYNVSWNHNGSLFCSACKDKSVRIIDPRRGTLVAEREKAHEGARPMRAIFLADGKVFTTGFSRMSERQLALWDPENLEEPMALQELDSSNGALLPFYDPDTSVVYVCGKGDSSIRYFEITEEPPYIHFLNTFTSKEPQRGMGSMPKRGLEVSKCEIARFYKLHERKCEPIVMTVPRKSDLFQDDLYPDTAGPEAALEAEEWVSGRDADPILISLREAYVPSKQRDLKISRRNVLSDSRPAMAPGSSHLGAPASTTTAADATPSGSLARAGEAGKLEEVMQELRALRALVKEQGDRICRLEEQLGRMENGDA

T1 sequence (Q05397 2-1052): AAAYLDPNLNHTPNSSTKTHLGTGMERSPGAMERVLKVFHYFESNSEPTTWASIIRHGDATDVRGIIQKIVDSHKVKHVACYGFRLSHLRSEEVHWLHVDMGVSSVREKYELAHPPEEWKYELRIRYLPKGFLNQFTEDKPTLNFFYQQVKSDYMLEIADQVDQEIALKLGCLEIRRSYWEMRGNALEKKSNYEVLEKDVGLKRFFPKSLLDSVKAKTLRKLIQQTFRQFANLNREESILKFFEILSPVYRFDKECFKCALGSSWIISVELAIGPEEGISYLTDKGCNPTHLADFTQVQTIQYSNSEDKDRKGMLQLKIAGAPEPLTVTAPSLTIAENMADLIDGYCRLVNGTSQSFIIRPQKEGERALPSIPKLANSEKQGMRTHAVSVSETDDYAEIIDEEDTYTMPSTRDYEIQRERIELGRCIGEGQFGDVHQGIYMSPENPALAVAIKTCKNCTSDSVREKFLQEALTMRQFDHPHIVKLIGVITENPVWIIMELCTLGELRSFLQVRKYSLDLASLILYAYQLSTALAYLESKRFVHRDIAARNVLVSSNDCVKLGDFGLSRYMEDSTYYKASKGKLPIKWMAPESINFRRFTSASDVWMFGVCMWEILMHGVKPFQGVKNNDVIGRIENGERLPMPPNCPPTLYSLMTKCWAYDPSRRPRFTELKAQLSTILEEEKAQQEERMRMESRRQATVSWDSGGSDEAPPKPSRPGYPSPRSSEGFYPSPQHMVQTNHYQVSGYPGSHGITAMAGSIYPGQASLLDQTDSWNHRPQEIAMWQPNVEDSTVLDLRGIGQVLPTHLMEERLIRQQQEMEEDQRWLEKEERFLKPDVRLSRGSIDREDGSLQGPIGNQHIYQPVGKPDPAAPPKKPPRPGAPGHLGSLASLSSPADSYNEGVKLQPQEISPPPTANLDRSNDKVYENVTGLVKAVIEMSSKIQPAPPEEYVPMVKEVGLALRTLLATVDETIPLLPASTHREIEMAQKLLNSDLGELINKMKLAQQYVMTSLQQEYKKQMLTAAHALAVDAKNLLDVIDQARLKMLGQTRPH
T2 sequence (P34152 2-1052): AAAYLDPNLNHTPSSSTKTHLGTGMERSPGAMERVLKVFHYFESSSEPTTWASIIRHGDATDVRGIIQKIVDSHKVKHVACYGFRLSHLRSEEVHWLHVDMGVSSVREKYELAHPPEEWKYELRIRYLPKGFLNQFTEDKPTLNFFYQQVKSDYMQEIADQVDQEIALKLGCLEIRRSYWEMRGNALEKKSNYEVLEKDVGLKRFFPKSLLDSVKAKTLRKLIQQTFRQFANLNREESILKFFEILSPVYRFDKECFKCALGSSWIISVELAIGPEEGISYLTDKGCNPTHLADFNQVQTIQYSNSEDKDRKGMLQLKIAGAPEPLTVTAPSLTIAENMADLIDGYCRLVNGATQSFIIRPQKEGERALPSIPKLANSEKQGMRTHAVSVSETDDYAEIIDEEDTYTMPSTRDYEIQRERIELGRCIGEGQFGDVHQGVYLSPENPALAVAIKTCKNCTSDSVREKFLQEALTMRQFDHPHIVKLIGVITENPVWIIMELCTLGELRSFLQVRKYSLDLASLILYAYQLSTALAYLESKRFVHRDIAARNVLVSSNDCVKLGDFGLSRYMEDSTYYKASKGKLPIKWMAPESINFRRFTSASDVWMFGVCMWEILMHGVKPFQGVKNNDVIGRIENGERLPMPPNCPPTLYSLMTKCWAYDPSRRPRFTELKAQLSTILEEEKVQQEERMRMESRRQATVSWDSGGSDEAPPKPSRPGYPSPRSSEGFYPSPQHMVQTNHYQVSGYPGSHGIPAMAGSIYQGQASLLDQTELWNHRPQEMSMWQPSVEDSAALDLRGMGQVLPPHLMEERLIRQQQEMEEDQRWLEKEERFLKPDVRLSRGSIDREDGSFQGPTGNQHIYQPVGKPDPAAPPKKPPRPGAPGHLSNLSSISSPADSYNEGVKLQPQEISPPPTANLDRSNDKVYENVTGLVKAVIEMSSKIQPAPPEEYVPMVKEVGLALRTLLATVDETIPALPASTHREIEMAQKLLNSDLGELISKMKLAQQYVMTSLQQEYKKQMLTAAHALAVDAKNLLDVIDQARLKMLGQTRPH

With `O=C(N[C@@H]1[C@@H](OP(=O)(O)O)[C@H](OP(=O)(O)O)[C@H](OP(=O)(O)O)[C@H](OP(=O)(O)O)[C@H]1OP(=O)(O)O)C(F)(F)P(=O)(O)O` [5-PCF2Am-InsP5] the “block of 5-InsP7-mediated FAK dimerization” value (FAK (GST-FAK, flag-FAK) [1]) was 5-PCP and CF2 compete with 5-InsP7 to block 5-InsP7-mediated FAK dimer formation.

In the case of `O=P(O)(O)CP(=O)(O)O[C@H]1[C@H](OP(=O)(O)O)[C@@H](OP(=O)(O)O)[C@@H](OP(=O)(O)O)[C@@H](OP(=O)(O)O)[C@@H]1OP(=O)(O)O` [5-PCP-InsP5], the “affinity resin pull-down from cell lysate, western blot” value (endogenous FAK (MEF)) is reported as 5-PCP resin pulls down endogenous FAK in WT and IP6K1 KO MEF cells, the “affinity resin pull-down of purified protein, western blot” value (FAK (GST-FAK, flag-FAK) [2]) is reported as 5-PCP resin pulls down purified full length (FL) FAK and FAK FERM domain and the “affinity resin pull-down of purified protein, western blot” value (p34 (flag-p34)) is reported as “pulls down purified p34 and coronin in an in vitro protein binding assay”. For the same compound, the “affinity resin pull-down of purified protein, western blot” value (coronin (GST-coronin)) was “pulls down purified p34 and coronin in an in vitro protein binding assay”.
